In US6642226B2, “Substituted phenyl-piperidine methanone compounds” (Hoffman-La Roche Inc., priority 2001, dated 2003):
≈ marks a conversion by molar mass, not a printed value.

Tests used:
[1] = molecular target: T1, human NK1 receptor (Homo sapiens, UniProt P25103); assay: NK1 receptor binding, [3H]substance P displacement; conditions: human NK1 receptors in CHO cells, [3H]substance P 0.6 nM; for Ki: read-out: pKi (affinity to the NK-1 receptor) (converted)
T1 construct: expressed in transfected cells; host or cells: CHO cells, Semliki virus expression system; membrane suspension
T1 sequence (P25103 whole entry): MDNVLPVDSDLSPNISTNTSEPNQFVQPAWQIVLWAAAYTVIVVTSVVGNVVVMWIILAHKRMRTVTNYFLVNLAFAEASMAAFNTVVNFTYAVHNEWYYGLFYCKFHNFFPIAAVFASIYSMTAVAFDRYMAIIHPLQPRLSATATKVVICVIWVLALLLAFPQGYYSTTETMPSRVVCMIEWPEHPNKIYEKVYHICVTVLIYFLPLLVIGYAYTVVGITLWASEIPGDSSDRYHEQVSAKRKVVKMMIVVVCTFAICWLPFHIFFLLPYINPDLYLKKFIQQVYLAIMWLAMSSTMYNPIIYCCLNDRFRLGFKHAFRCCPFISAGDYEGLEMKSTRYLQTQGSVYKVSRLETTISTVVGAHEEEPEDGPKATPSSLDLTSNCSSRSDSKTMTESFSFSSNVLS
Experimental: The affinity of test compounds for the NK1 receptor was evaluated at human NK1 receptors in CHO cells infected with the human NK1 receptor (using the Semliki virus expression system) and radiolabelled with [^3H]substance P (final concentration 0.6 nM). Binding assays were performed in HEPES buffer (50 mM, pH 7.4) containing BSA (0.04%) leupeptin (8 μg/ml), MnCl2 (3 mM) and phosphoramidon (2 μM). Binding assays consisted of 250 μl of membrane suspension (1.25×10^5 cells/assay tube), […] of buffer of displacing agent and 125 μl of [^3H]substance P. Displacement curves were determined with at least seven concentrations of the compound. The assay tubes were incubated for 60 min at room temperature after which time the tube contents were rapidly filtered under vacuum through GF/C filters presoaked for 60 min with PEI (0.3%) with 2×2 ml washes of HEPES buffer (50 mM, pH 7.4). The radioactivity retained on the filters was measured by scintillation counting. All assays were performed in triplicate in at least 2 separate experiments.

[2] = Solubility at pH 6.5 and pH 4.3 (water-solubility); conditions: water (aqueous medium; buffer not named)

Row | Structure (SMILES) | Ki [1] | solubility ([2]; pH 4.3, aqueous buffer) | solubility ([2]; pH 6.5, aqueous buffer) | other results
1 | CN1CCN([C@H]2CCN(C(=O)c3cc(C(F)(F)F)cc(C(F)(F)F)c3)C[C@H]2c2ccccc2)CC1 (racemic) [Example 27, Rac-cis-(3,5-Bis-trifluoromethyl-phenyl)-[4-(4-methyl-piperazin-1-yl)-3-phenyl-piperidin-1-yl]-methanone] | 3.09 nM | > 8400 µg/mL | 910 µg/mL (≈ 1820 µM) | 
2 | O=C(c1cc(C(F)(F)F)cc(C(F)(F)F)c1)N1CC[C@H](N2CCNCC2)[C@H](c2ccccc2)C1 (racemic) [Example 34, Rac-cis-(3,5-Bis-trifluoromethyl-phenyl)-(3-phenyl-4-piperazin-1-yl-piperidin-1-yl)-methanone] |  | > 3500 µg/mL |  | 
3 | O=C(c1cc(C(F)(F)F)cc(C(F)(F)F)c1)N1CC[C@H](N2CCN(CC3CC3)CC2)[C@H](c2ccccc2)C1 (racemic) [Example 36, Rac-cis-(3,5-Bis-trifluoromethyl-phenyl)-[4-(4-cyclopropylmethyl-piperazin-1-yl)-3-phenyl-piperidin-1-yl]-methanone] | 1.26 nM | > 7500 µg/mL |  | 
4 | CN1CCN([C@H]2CCN(C(=O)c3cc(C(F)(F)F)cc(C(F)(F)F)c3)C[C@H]2c2ccc(F)cc2)CC1 (racemic) [Example 45, Rac-cis-(3,5-Bis-trifluoromethyl-phenyl)-[3-(4-fluoro-phenyl)-4-(4-methyl-piperazin-1-yl)-piperidin-1-yl]-methanone] |  | 2400 µg/mL (≈ 4640 µM) | 1000 µg/mL (≈ 1930 µM) | 
5 | O=C(c1cc(C(F)(F)F)cc(C(F)(F)F)c1)N1CCC(N2CCC(O)CC2)C(c2ccc(Cl)cc2)C1 (racemic) [Example 63, Rac-cis-(3,5-Bis-trifluoromethyl-phenyl)-[3′-(4-chloro-phenyl)-4-hydroxy-[1,4′]bipiperidinyl-1′-yl]-methanone] | 2.14 nM | 1000 µg/mL (≈ 1870 µM) | 780 µg/mL (≈ 1460 µM) | 
6 | Cc1ccc(C2CN(C(=O)c3cc(C(F)(F)F)cc(C(F)(F)F)c3)CCC2N2CCN(CC3CC3)CC2)cc1 (single isomer, unassigned; (-)) [Example 102, (−)-4-(3,5-Bis-trifluoromethyl-phenyl)-[4-(4-cyclopropylmethyl-piperazin-1-yl)-3-p-tolyl-piperidin-1-yl]-methanone] |  |  |  | pKi (affinity to the NK-1 receptor) [1]: 9.28; Solubility at pH 4.3 (pH 4.3): 5.5 mg/mL; Solubility at pH 6.5 (pH 6.5): 0.43 mg/mL
7 | Cc1ccc(C2CN(C(=O)c3cc(C(F)(F)F)cc(C(F)(F)F)c3)CCC2N2CCN(C)CC2)cc1 (single isomer, unassigned; (-)) [Example 111, (−)-(3,5-Bis-trifluoromethyl-phenyl)-[4-(4-methyl-piperazin-1-yl)-3-p-tolyl-piperidin-1-yl]-methanone] | 0.457 nM |  |  | 
8 | O=C(c1cc(C(F)(F)F)cc(C(F)(F)F)c1)N1CCC(N2CCN(CC3CC3)CC2)C(c2ccc(Cl)cc2)C1 (single isomer, unassigned; (-)) [Example 113, (−)-(3,5-Bis-trifluoromethyl-phenyl)-[3-(4-chloro-phenyl)-4-(4-cyclopropylmethyl-piperazin-1-yl)-piperidin-1-yl]-methanone] | 0.363 nM |  |  | 
9 | O=C(c1cc(C(F)(F)F)cc(C(F)(F)F)c1)N1CCC(N2CCN(CC3CC3)CC2)C(c2ccccc2)C1 (single isomer, unassigned; (-)) [Example 114, (−)-(3,5-Bis-trifluoromethyl-phenyl)-[4-(4-cyclopropylmethyl-piperazin-1-yl)-3-phenyl-piperidin-1-yl]-methanone] | 0.363 nM |  |  | 
10 | O=C(c1cc(C(F)(F)F)cc(C(F)(F)F)c1)N1CCC(N2CCN(CCO)CC2)C(c2ccccc2)C1 (single isomer, unassigned; (-)) [Example 115, (−)-(3,5-Bis-trifluoromethyl-phenyl)-{4-[4-(2-hydroxy-ethyl)-piperazin-1-yl]-3-phenyl-piperidin-1-yl}-methanone] | 0.912 nM |  |  | 
